Measurements taken from US8344001B2, “Heterocyclic H3 antagonists” (High Point Pharmaceuticals, LLC, priority 2007, dated 2013).

Columns and labels:
Human H3 = Human H3 (Homo sapiens, UniProt Q9Y5N1); test: Functional assay II, human H3 GTPγS; type: biochemical; settings: read-out: hH3-GTPgS) [Ki]
rat = test: Open cage schedule-fed rat model, food intake; type: in vivo; settings: for Feed. Inhib. rat [Response 3 h]: response at 3 h
hERG = hERG (Homo sapiens, UniProt Q12809); test: Herg-binding (3H-Astemizol); settings: probe 3H-astemizole
CYP2C19 = CYP2C19 (Homo sapiens, UniProt P33261); test: CYP2C19 inhibition; type: in vitro ADME; settings: read-out: CYP2C19inh [IC50]
CYP1A = biological target: T1, CYP1A (Homo sapiens, UniProt P05177); test: CYP1A inhibition
T1 sequence (P05177 2-516): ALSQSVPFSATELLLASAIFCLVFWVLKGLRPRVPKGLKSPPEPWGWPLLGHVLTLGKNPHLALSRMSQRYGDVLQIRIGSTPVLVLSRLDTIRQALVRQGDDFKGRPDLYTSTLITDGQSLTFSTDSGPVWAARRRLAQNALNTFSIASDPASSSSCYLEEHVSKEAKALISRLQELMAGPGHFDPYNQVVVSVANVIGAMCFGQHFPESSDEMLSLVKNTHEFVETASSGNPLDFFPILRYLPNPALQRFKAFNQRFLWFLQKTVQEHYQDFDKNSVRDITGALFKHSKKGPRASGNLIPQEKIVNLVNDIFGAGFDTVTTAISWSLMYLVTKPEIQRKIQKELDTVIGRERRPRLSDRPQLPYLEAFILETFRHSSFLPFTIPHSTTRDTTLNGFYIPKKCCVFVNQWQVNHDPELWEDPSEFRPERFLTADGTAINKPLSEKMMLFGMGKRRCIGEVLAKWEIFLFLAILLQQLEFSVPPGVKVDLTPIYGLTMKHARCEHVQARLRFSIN

CYP2C9 = CYP2C9 (Homo sapiens, UniProt P11712); test: CYP2C9 inhibition; type: in vitro ADME; settings: read-out: CYP2C9inh [IC50]
CYP3A4 = CYP3A4 (Homo sapiens, UniProt P08684); test: CYP3A4 inhibition; type: in vitro ADME; settings: read-out: CYP3A4inh [IC50]
CYP2D6 = CYP2D6 (Homo sapiens, UniProt P10635); test: CYP2D6 inhibition; type: in vitro ADME; settings: read-out: CYP2D6inh [IC50]
Sequence of CYP2D6 (P10635 whole entry): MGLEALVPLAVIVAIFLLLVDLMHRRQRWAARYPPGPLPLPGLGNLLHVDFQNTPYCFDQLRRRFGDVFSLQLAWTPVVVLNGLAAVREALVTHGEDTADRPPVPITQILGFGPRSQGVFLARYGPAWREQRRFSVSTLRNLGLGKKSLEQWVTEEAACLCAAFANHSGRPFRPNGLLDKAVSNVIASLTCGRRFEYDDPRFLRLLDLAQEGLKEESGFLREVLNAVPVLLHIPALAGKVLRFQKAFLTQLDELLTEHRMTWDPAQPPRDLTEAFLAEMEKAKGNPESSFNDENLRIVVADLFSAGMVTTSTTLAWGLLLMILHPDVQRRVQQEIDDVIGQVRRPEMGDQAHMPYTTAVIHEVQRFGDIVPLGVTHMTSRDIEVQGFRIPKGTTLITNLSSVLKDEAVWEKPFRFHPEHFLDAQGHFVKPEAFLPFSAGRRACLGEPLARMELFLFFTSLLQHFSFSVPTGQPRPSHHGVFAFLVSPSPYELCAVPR

Sequence of hERG (Q12809 whole entry): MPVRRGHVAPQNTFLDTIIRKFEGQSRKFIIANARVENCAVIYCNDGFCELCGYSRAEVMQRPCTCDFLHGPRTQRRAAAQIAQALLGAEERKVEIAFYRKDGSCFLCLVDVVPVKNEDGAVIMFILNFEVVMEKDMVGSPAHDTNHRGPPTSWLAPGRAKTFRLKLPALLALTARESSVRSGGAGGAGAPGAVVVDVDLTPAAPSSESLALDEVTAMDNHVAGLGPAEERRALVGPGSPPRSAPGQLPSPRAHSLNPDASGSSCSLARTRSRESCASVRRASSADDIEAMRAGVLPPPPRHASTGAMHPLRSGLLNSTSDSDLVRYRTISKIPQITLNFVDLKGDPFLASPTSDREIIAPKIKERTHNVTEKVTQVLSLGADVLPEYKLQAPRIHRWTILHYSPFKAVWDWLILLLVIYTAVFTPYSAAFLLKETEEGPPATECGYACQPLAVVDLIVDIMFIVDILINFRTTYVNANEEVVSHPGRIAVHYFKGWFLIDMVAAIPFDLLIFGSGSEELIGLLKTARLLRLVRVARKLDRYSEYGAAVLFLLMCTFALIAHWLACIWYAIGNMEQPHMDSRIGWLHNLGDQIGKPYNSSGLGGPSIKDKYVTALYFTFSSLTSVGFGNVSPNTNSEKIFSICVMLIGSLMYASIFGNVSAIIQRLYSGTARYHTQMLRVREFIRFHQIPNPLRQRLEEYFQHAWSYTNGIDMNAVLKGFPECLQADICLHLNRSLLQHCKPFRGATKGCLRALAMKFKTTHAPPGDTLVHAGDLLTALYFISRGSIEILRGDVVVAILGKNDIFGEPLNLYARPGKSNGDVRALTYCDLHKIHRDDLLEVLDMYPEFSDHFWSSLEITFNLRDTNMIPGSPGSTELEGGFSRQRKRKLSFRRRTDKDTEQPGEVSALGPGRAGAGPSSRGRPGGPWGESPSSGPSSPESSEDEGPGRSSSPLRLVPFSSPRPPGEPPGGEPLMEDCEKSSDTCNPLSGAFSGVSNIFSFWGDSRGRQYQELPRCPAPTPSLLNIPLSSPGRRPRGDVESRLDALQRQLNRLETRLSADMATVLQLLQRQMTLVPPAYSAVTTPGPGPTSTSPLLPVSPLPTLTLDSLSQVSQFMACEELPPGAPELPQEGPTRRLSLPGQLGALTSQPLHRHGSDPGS
Sequence of CYP3A4 (P08684 whole entry): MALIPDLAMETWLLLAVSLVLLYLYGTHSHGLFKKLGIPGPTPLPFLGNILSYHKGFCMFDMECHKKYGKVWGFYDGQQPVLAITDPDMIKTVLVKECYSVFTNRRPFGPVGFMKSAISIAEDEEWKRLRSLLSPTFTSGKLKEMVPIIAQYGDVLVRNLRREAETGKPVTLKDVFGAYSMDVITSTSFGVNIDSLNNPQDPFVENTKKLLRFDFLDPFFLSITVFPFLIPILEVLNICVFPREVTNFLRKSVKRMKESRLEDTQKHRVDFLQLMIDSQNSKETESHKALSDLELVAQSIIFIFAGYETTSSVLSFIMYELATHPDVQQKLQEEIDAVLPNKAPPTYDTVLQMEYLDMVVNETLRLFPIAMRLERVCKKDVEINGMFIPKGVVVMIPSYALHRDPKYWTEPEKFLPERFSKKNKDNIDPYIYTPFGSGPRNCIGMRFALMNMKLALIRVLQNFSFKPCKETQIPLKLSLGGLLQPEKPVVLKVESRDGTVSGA
Sequence of CYP2C9 (P11712 whole entry): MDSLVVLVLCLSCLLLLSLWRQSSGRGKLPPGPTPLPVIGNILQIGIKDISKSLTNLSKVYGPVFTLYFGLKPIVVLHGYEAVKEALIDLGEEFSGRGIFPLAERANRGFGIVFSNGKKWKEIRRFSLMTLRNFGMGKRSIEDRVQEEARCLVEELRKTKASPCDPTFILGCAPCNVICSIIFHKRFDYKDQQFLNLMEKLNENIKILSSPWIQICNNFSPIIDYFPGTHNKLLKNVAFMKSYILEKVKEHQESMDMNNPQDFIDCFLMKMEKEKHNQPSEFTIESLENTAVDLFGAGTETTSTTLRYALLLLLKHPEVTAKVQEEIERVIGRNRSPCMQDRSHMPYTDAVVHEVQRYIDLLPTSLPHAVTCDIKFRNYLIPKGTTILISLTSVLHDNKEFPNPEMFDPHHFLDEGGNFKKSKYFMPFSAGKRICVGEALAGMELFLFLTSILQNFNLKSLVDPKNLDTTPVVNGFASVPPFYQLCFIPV
Sequence of Human H3 (Q9Y5N1 whole entry): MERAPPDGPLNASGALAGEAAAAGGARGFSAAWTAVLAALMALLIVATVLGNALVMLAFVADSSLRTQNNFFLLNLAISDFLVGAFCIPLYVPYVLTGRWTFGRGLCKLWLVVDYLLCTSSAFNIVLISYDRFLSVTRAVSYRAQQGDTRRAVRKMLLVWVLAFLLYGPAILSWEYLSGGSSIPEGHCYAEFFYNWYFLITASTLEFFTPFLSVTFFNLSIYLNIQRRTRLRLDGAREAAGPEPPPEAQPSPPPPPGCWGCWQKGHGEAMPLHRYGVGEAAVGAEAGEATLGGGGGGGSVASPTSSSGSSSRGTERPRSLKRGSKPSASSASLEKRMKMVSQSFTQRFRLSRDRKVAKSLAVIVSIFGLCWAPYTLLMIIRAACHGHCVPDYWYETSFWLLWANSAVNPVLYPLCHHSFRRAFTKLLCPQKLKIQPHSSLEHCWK
Sequence of CYP2C19 (P33261 whole entry): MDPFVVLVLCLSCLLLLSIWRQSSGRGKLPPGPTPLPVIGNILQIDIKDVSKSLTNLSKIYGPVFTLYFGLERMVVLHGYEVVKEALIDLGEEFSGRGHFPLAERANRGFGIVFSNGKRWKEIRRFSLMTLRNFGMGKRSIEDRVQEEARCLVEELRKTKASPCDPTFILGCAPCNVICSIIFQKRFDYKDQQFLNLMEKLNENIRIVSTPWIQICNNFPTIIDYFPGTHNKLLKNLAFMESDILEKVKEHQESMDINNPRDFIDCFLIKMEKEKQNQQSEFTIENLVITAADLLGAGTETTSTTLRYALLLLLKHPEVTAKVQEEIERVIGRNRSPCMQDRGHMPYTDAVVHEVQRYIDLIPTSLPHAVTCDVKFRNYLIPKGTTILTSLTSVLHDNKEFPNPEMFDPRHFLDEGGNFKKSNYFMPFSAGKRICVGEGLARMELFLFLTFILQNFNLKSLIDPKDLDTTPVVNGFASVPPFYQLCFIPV

Cc1cc(-c2ccc(CC3CCN(C4CCC4)CC3)nc2)ccn1.Cl.Cl [Example 29, 6-(1-Cyclobutylpiperidin-4-ylmethyl)-2′-methyl-[3,4′]bipyridinyl]
Ki (Human H3): 0.0084 µM | Open cage schedule-fed rat model, dose 15 mg/kg p.o., food intake at 3 h (rat): 74.4 % of vehicle | Feed. Inhib. rat [Response 3 h] (rat): 74.4% | inhibition at 10 µM (hERG): 7% | IC50 (CYP2C19): > 25 µM | IC50 (CYP1A): > 25 µM | IC50 (CYP2C9): > 25 µM | IC50 (CYP3A4): > 25 µM | IC50 (CYP2D6): > 25 µM

CC(C)N1CCN(Cc2ccc(-c3ccc(C(=O)N(C)C)cc3)cn2)CC1.Cl.Cl [Example 42, 4-[6-(4-Isopropylpiperazin-1-ylmethyl)pyridin-3-yl]-N,N-dimethylbenzamide]
Ki (Human H3): 0.017 µM | Open cage schedule-fed rat model, dose 15 mg/kg p.o., food intake at 3 h (rat): 87.8 % of vehicle | Feed. Inhib. rat [Response 3 h] (rat): 87.8% | inhibition at 10 µM (hERG): 7% | IC50 (CYP2C19): > 25 µM | IC50 (CYP1A): > 25 µM | IC50 (CYP2C9): > 25 µM | IC50 (CYP3A4): > 25 µM | IC50 (CYP2D6): > 25 µM

CC(C)N1CCC(c2ccc(-c3ccc(C(=O)N4CCCC4)cc3)cn2)CC1.Cl.Cl [Example 11, [4-(1′-Isopropyl-1′,2′,3′,4′,5′,6′-hexahydro-[2,4′]bipyridinyl-5-yl)phenyl]pyrrolidin-1-ylmethanone]
Ki (Human H3): 0.026 µM | Open cage schedule-fed rat model, dose 15 mg/kg p.o., food intake at 3 h (rat): 85.9 % of vehicle | Feed. Inhib. rat [Response 3 h] (rat): 85.9% | inhibition at 10 µM (hERG): 19% | IC50 (CYP2C19): > 25 µM | IC50 (CYP1A): > 25 µM | IC50 (CYP2C9): > 25 µM | IC50 (CYP3A4): > 25 µM | IC50 (CYP2D6): > 25 µM
